18 molecules from ChEMBL document CHEMBL1909046, “DrugMatrix in vitro pharmacology data” can be followed below.

Data set [1] has as its target T1, Receptor-type tyrosine-protein phosphatase C (Homo sapiens, UniProt P08575).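 Also: inhibition of CD45 enzyme activity measured using DiFMUP as substrate.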
T1 sequence (P08575 whole entry): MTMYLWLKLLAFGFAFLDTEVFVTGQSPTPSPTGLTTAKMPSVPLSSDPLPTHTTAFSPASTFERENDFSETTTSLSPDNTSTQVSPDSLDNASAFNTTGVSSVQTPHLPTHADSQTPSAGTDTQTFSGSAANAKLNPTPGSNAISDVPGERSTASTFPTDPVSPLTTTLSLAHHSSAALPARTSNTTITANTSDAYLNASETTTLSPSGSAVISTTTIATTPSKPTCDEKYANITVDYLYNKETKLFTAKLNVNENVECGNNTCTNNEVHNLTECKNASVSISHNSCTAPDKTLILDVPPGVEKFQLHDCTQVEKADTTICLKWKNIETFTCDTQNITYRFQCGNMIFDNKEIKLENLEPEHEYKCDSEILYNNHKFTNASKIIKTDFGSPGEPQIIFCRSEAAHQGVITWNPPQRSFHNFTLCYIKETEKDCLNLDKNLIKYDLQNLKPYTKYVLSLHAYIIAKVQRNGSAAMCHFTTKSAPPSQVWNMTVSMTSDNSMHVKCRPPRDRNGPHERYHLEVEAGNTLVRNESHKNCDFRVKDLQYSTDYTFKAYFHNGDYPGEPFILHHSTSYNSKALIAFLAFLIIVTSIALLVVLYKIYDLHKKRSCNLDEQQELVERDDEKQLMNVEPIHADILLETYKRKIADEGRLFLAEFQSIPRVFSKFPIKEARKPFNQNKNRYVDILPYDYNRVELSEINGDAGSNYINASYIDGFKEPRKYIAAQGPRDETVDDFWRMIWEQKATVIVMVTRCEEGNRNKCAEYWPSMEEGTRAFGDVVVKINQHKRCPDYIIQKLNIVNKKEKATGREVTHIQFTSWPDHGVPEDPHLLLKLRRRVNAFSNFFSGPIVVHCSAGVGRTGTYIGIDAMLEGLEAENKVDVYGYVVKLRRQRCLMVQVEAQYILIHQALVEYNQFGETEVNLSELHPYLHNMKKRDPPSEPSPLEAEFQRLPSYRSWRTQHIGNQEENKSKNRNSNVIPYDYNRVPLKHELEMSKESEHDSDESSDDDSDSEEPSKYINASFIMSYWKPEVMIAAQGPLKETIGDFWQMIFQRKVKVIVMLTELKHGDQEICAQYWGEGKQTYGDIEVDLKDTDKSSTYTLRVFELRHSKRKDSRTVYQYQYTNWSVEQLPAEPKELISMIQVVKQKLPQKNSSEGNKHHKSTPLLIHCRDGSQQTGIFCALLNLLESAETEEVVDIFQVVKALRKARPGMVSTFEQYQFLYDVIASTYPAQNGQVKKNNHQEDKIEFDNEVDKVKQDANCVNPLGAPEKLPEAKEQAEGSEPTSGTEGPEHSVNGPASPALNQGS
The arrangement: species or system Escherichia coli.

Another data set concerns the target Substance-P receptor (Homo sapiens, UniProt P25103). The format is cell membranes, CHO, Membrane.
For a further data set, the target named is Melanocortin receptor 5 (Homo sapiens, UniProt P33032). Type of data set: cell membranes, HEK293, Membrane.
A further data set addresses Cytochrome P450 3A4 (Homo sapiens, UniProt P08684). The settings on record: bti-tn-5b1-4.
For a further data set, the target named is Histamine H2 receptor (Homo sapiens, UniProt P25021). Type of data set: cell membranes, CHO-K1, Membrane. The conditions noted are these: for Ki: read-out: Ki.
A further data set concerns the target T2, Endothelin-1 receptor (Homo sapiens, UniProt P25101).
T2 sequence (P25101 whole entry): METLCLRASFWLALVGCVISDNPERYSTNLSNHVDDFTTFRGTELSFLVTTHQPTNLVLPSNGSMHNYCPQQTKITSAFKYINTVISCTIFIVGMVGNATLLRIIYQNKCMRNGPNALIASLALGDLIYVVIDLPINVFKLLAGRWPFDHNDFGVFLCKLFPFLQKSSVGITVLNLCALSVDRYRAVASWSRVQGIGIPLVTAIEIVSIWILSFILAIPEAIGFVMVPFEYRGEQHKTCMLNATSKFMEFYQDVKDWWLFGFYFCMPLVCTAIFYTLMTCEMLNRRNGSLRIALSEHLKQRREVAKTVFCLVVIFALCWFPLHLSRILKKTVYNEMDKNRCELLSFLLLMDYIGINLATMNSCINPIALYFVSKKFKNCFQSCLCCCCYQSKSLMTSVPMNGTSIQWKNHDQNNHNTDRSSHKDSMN
Type of data set: cell membranes, Membrane. The settings on record: cho-k1.

Data set [2] concerns the target Matrix metalloproteinase-9 (Homo sapiens, UniProt P14780). The format is cell-based.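 Also: inhibition of isolated MMP-9 enzyme activity toward a synthetic peptide substrate, from the DrugMatrix protease screening panel.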
Also: in other assays of this panel Not Active means under 50% inhibition at 10 µM.

Substance-P receptor, sequence (P25103 whole entry): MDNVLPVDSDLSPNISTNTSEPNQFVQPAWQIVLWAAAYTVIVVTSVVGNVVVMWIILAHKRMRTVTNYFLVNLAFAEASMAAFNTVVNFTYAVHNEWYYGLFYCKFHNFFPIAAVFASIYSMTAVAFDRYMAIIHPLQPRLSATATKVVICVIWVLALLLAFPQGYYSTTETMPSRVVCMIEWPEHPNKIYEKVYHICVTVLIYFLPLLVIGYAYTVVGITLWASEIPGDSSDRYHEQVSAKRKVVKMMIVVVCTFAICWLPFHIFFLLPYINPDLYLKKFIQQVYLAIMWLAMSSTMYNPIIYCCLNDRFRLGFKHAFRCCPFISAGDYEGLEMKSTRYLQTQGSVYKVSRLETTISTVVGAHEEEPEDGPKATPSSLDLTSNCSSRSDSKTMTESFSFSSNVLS
Melanocortin receptor 5, sequence (P33032 whole entry): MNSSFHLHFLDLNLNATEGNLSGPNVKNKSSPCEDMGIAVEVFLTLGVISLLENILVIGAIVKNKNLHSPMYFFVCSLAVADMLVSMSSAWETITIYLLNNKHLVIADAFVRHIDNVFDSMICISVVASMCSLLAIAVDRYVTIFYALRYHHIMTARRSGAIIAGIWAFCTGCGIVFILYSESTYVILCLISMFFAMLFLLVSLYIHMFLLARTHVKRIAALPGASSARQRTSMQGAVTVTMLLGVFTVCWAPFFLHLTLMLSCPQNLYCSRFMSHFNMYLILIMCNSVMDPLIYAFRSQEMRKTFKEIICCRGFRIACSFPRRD
Histamine H2 receptor, sequence (P25021 whole entry): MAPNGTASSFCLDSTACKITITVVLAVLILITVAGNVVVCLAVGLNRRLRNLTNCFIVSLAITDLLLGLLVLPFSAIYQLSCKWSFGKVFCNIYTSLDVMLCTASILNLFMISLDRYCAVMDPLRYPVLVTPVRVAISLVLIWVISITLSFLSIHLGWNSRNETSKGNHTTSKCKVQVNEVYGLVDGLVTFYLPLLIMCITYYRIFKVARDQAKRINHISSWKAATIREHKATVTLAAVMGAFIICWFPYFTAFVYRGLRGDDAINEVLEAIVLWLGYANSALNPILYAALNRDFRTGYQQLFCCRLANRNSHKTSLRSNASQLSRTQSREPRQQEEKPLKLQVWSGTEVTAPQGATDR
Matrix metalloproteinase-9, sequence (P14780 whole entry): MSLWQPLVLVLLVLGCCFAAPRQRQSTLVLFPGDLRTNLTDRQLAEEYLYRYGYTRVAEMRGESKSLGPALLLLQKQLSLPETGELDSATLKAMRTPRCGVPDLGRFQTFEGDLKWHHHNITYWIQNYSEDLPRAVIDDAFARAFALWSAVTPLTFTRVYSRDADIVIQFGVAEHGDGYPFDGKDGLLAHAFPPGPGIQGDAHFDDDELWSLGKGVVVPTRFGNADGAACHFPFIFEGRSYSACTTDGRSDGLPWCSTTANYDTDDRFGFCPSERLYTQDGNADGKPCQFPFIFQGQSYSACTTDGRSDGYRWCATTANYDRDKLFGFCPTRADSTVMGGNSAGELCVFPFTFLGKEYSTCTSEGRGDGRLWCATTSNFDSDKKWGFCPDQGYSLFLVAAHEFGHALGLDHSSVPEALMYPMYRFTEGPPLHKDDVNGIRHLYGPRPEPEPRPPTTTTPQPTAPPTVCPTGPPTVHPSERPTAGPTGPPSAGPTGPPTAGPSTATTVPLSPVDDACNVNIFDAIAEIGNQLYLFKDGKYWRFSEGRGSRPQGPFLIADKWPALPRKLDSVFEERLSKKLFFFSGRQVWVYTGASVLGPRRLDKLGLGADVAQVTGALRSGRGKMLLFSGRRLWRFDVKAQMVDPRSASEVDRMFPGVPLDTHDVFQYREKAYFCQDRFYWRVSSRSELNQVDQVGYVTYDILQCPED
Cytochrome P450 3A4, sequence (P08684 whole entry): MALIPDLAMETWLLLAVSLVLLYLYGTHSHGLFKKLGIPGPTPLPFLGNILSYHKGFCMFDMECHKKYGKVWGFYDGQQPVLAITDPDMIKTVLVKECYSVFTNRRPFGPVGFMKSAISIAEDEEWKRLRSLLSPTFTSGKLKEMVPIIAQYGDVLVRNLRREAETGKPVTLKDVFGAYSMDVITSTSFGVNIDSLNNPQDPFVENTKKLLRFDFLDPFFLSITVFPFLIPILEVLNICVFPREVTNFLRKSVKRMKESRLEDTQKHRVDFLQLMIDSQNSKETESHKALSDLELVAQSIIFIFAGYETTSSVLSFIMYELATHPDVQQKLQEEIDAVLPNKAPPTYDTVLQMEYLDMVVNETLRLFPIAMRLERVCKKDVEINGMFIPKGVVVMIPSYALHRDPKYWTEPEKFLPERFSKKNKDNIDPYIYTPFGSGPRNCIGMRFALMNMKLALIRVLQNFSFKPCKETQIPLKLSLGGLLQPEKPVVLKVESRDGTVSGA

Usually IC50 stands for the concentration at which inhibition is half-maximal. The term Ki denotes a dissociation constant, usually derived from enzyme kinetics or from competition with a known ligand. As for `CCCCC(=O)N(Cc1ccc(-c2ccccc2-c2nnn[nH]2)cc1)[C@H](C(=O)O)C(C)C`, the IC50 entry (in data set [1]; against Substance-P receptor (cho); against Melanocortin receptor 5 (hek293); on Cytochrome P450 3A4; against Histamine H2 receptor (cho-k1); against Endothelin-1 receptor) was “Not Active” each time. For the same molecule, in data set [2], the half-inhibitory concentration (IC50) entry is “Not Active”. Besides, at Cytochrome P450 3A4, the Ki entry is recorded as “Not Active”.

In the case of `O=C(O)COc1ccc(C(=O)c2cccs2)c(Cl)c1Cl`, the IC50 result (in data set [1]; against Substance-P receptor (cho); against Melanocortin receptor 5 (hek293); against Cytochrome P450 3A4; against Histamine H2 receptor (cho-k1); at Endothelin-1 receptor) was “Not Active” each time. Besides, the IC50 entry in data set [2] is listed as “Not Active”. The Ki entry on Cytochrome P450 3A4 is recorded as “Not Active”.

For the molecule `CN1[C@@H]2CC[C@H]1C[C@@H](OC(c1ccccc1)c1ccccc1)C2` [BENZTROPINE], the IC50 entry was “Not Active” in data set [1]; “Not Active” against Substance-P receptor (cho); “Not Active” against Melanocortin receptor 5 (hek293); “Not Active” on Cytochrome P450 3A4; 1.21 µM at Histamine H2 receptor (read-out: IC50); “Not Active” against Endothelin-1 receptor. In addition, in data set [2], the IC50 result was “Not Active”. Also, the Ki result at Cytochrome P450 3A4 was “Not Active”; on Histamine H2 receptor, 1.19 µM.

For `C[C@@](Cc1ccc(O)c(O)c1)(NN)C(=O)O.O` [CARBIDOPA], the IC50 result (in data set [1]; on Substance-P receptor (cho); on Melanocortin receptor 5 (hek293); against Cytochrome P450 3A4; on Histamine H2 receptor (cho-k1); on Endothelin-1 receptor) was “Not Active” throughout. In data set [2], the IC50 result was “Not Active”. Moreover, the Ki entry on Cytochrome P450 3A4 is reported as “Not Active”.

In the case of `CN1CCN(C2=Nc3cc(Cl)ccc3Nc3ccccc32)CC1` [CLOZAPINE], the IC50 entry in data set [1] is “Not Active”; on Substance-P receptor (cho) it was “Not Active”; on Melanocortin receptor 5 (hek293), “Not Active”; on Histamine H2 receptor (read-out: IC50), […]; on Endothelin-1 receptor, “Not Active”; in data set [2] it was “Not Active”. In addition, the Ki at Histamine H2 receptor stood at […].

In the case of `CC(C)NC[C@@H](O)COc1cccc2ccccc12` [DEXPROPRANOLOL], the IC50 entry (in data set [1]; at Substance-P receptor (cho); at Melanocortin receptor 5 (hek293); against Cytochrome P450 3A4; on Histamine H2 receptor (cho-k1); against Endothelin-1 receptor) was “Not Active” throughout. In addition, in data set [2], the IC50 result is on record as “Not Active”. Further, the Ki result at Cytochrome P450 3A4 is recorded as “Not Active”.

Take `CC(C)NC[C@H](O)COc1cccc2ccccc12` [LEVOPROPRANOLOL]: the half-maximal inhibitory concentration (IC50) result (in data set [1]; on Substance-P receptor (cho); against Melanocortin receptor 5 (hek293); against Cytochrome P450 3A4; on Histamine H2 receptor (cho-k1); at Endothelin-1 receptor) was “Not Active” throughout. Besides, the IC50 entry in data set [2] is given as “Not Active”. Moreover, on Cytochrome P450 3A4, the Ki result is reported as “Not Active”.

As for `O=C(O)CCCCC1CCSS1` (stereo not drawn) [LIPOIC ACID, ALPHA], the IC50 entry (in data set [1]; against Substance-P receptor (cho); against Melanocortin receptor 5 (hek293); against Cytochrome P450 3A4; against Histamine H2 receptor (cho-k1); against Endothelin-1 receptor) was “Not Active” throughout. For the same molecule, the IC50 result in data set [2] was “Not Active”. In addition, on Cytochrome P450 3A4, the Ki result is recorded as “Not Active”.

Consider `CN(C)C(=O)C(CCN1CCC(O)(c2ccc(Cl)cc2)CC1)(c1ccccc1)c1ccccc1` [LOPERAMIDE], for which the 50% inhibitory concentration (IC50) result is “Not Active” in data set [1]; “Not Active” on Substance-P receptor (cho); “Not Active” against Melanocortin receptor 5 (hek293); “Not Active” against Cytochrome P450 3A4; 3.08 µM on Histamine H2 receptor (read-out: IC50); “Not Active” on Endothelin-1 receptor. The IC50 result in data set [2] is recorded as “Not Active”. For the same molecule, the Ki entry was “Not Active” at Cytochrome P450 3A4 and 3.03 µM on Histamine H2 receptor.

On to `Clc1ccc(COC(Cn2ccnc2)c2ccc(Cl)cc2Cl)c(Cl)c1` (stereo not given) [MICONAZOLE], for which the concentration for half-maximal inhibition (IC50) result in data set [1] was “Not Active”; on Substance-P receptor (read-out: IC50), 6.81 µM; on Melanocortin receptor 5 (read-out: IC50), 22.6 µM; on Histamine H2 receptor (read-out: IC50), 6.75 µM; at Endothelin-1 receptor, “Not Active”; in data set [2] it was “Not Active”. Further, the values for the inhibition constant (Ki) on Substance-P receptor (read-out: Ki), on Melanocortin receptor 5 (read-out: Ki) and on Histamine H2 receptor were 3.72 µM, 21.2 µM and 6.64 µM, respectively.

For the molecule `Oc1ccc2c3c1O[C@H]1[C@@H](O)CC[C@@]4(O)[C@@H](C2)N(CC2CCC2)CC[C@]314` [NALBUPHINE], the IC50 result (in data set [1]; on Substance-P receptor (cho); on Melanocortin receptor 5 (hek293); against Histamine H2 receptor (cho-k1); on Endothelin-1 receptor; in data set [2]) was “Not Active” throughout.

Turning to `C[C@]12C=CC(=O)C=C1CC[C@@H]1[C@@H]2C(=O)C[C@@]2(C)[C@H]1CC[C@]2(O)C(=O)CO` [PREDNISONE], the IC50 result (in data set [1]; against Substance-P receptor (cho); against Melanocortin receptor 5 (hek293); against Histamine H2 receptor (cho-k1); on Endothelin-1 receptor; in data set [2]) was “Not Active” throughout.

In the case of `OCCOCCN1CCN(C2=Nc3ccccc3Sc3ccccc32)CC1` [QUETIAPINE], the IC50 result (in data set [1]; at Substance-P receptor (cho); against Melanocortin receptor 5 (hek293); against Cytochrome P450 3A4; against Histamine H2 receptor (cho-k1); at Endothelin-1 receptor) was “Not Active” each time. Also, in data set [2], the IC50 entry is “Not Active”. Moreover, on Cytochrome P450 3A4, the Ki result is given as “Not Active”.

Consider `COC(=O)[C@H]1[C@H]2C[C@@H]3c4[nH]c5cc(OC)ccc5c4CCN3C[C@H]2C[C@@H](OC(=O)c2cc(OC)c(OC)c(OC)c2)[C@@H]1OC` [RESERPINE], for which the IC50 entry (in data set [1]; against Substance-P receptor (cho); against Melanocortin receptor 5 (hek293); against Cytochrome P450 3A4; against Histamine H2 receptor (cho-k1); at Endothelin-1 receptor) was “Not Active” each time. Moreover, the IC50 result in data set [2] is “Not Active”. Also, the Ki result at Cytochrome P450 3A4 is on record as “Not Active”.

In the case of `O=C(O)c1ccccc1O` [SALICYLIC ACID], the IC50 entry (in data set [1]; at Substance-P receptor (cho); on Melanocortin receptor 5 (hek293); against Cytochrome P450 3A4; against Histamine H2 receptor (cho-k1); against Endothelin-1 receptor) was “Not Active” in each case. For the same molecule, the IC50 result in data set [2] was “Not Active”. Moreover, at Cytochrome P450 3A4, the Ki entry is on record as “Not Active”.

`C[S+]([O-])c1ccc(-c2nc(-c3ccncc3)c(-c3ccc(F)cc3)[nH]2)cc1` (stereo not given) [SB-203580]: the IC50 entry (in data set [1]; on Substance-P receptor (cho); on Melanocortin receptor 5 (hek293); on Cytochrome P450 3A4; on Histamine H2 receptor (cho-k1); on Endothelin-1 receptor) was “Not Active” each time. In addition, the IC50 result in data set [2] is recorded as “Not Active”. Also, the Ki entry on Cytochrome P450 3A4 is given as “Not Active”.

As to `CC1CCC(NC(=O)N(CCCl)N=O)CC1` (stereo not given) [SEMUSTINE], the IC50 result (in data set [1]; against Substance-P receptor (cho); against Melanocortin receptor 5 (hek293); on Cytochrome P450 3A4; on Histamine H2 receptor (cho-k1); on Endothelin-1 receptor) was “Not Active” throughout. Further, the IC50 result in data set [2] was “Not Active”. The Ki result on Cytochrome P450 3A4 is listed as “Not Active”.

With `CN1CCN(CCCN2c3ccccc3Sc3ccc(C(F)(F)F)cc32)CC1` [TRIFLUOPERAZINE], the IC50 result (in data set [1]; against Substance-P receptor (cho); against Melanocortin receptor 5 (hek293); against Histamine H2 receptor (cho-k1); against Endothelin-1 receptor; in data set [2]) was “Not Active” in each case.
